Measurements published in patent US7557213B2, “Substituted quinolones and methods of use” (ChemoCentryx, Inc., priority 2005, dated 2009).

Target: T1, CCXCKR2 receptor (Homo sapiens, UniProt P25106)
T1 construct: expressed in transfected cells; host or cells: MDA-MB-435S transfected with pcDNA3.1(+)-hRDC1 and/or MCF-7 (endogenous receptor)
Experiment: Displacement of 125I-labeled SDF-1 from the CCXCKR2 receptor on MCF-7 and/or CCXCKR2-transfected MDA-MB-435S cells (radioligand binding, filtration)
Conditions: 125I SDF-1, 3 hr at 4° C., MCF-7 and/or MDA-MB-435S cells; read-out: Activity (concentration displacing at least 50% of the SDF-1 from the CCXCKR2 receptor)

T1 sequence (P25106 whole entry): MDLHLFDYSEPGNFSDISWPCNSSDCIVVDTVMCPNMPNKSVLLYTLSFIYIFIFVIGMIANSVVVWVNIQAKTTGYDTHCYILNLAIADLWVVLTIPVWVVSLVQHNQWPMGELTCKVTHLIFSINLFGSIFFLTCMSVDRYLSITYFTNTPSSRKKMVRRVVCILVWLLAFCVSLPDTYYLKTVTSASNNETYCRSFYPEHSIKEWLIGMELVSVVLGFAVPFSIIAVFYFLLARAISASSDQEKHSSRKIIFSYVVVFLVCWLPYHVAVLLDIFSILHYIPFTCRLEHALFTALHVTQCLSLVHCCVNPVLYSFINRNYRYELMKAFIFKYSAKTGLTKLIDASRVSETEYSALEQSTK

Compound	IC50 [nM]
CN(C)c1cccc(C(=O)c2cn(Cc3cccc(Br)n3)c3ccccc3c2=O)c1 [Example 97]	< 100
COc1ccc(C(=O)c2cn(Cc3cccc(Br)n3)c3ccccc3c2=O)cc1C [Example 98]	< 100
CNc1cccc(Cn2cc(C(=O)c3cnc(C)c(C)c3)c(=O)c3ccccc32)n1 [Example 99]	100 to 500
O=C(c1ccc(Cl)c(Cl)c1)c1cn(Cc2cccc(Br)n2)c2ccccc2c1=O [Example 100]	< 100
Cc1ccc(C(=O)c2cn(Cc3cccc(Br)n3)c3ccccc3c2=O)c(C)c1 [Example 101]	< 100
Cc1ccc(C)c(C(=O)c2cn(Cc3cccc(Br)n3)c3ccccc3c2=O)c1 [Example 102]	< 100
Cc1cccc(C(=O)c2cn(Cc3cccc(Br)n3)c3ccccc3c2=O)c1C [Example 103]	< 100
Cc1cc(C)cc(C(=O)c2cn(Cc3cccc(Br)n3)c3ccccc3c2=O)c1 [Example 104]	< 100
Cc1ccc(C(=O)c2cn(Cc3cccc(Br)n3)c3cccnc3c2=O)cc1C [Example 105]	< 100
Cc1ccc2c(=O)c(C(=O)c3ccc(C)c(C)c3)cn(Cc3cccc(Br)n3)c2n1 [Example 106]	< 100
Cc1cccc(Cn2cc(C(=O)c3ccc(C)c(C)c3)c(=O)c3ccc(C)nc32)n1 [Example 107]	< 100
Cc1ccc(C(=O)c2cn(Cc3cccc(CCl)n3)c3ccccc3c2=O)cc1C [Example 108]	< 100
Cc1cc2c(=O)c(C(=O)c3ccc(C)c(C)c3)cn(Cc3cccc(Br)n3)c2c(C)n1 [Example 109]	500 to 20000
Cc1cc(C(=O)c2cn(Cc3cccc(NC4CC4)n3)c3ccccc3c2=O)cnc1C [Example 110]	500 to 20000
COCc1cccc(Cn2cc(C(=O)c3ccc(C)c(C)c3)c(=O)c3ccccc32)n1 [Example 111]	100 to 500
Cc1cc(C(=O)c2cn(Cc3cccc(Br)n3)c3ccccc3c2=O)c[n+]([O-])c1C [Example 112]	100 to 500
O=C(c1ccc2c(c1)OCCO2)c1cn(Cc2cccc(Br)n2)c2ccccc2c1=O [Example 113]	< 100
CC(C)(C)c1ccc(C(=O)c2cn(Cc3cccc(Br)n3)c3ccccc3c2=O)cc1 [Example 114]	< 100
CCc1ccc(C(=O)c2cn(Cc3cccc(Br)n3)c3ccccc3c2=O)cc1 [Example 115]	< 100
Cc1ccc(C(=O)c2cn(Cc3cccc(Br)n3)c3c(C)ccnc3c2=O)cc1C [Example 116]	500 to 20000
CNCc1cccc(Cn2cc(C(=O)c3ccc(C)c(C)c3)c(=O)c3ccccc32)n1 [Example 117]	500 to 20000

Compound	IC50 [nM]
Cc1ccc(C(=O)c2cn(Cc3cccc(CN(C)C)n3)c3ccccc3c2=O)cc1C [Example 118]	500 to 20000
Cc1ccc2c(n1)c(=O)c(C(=O)c1ccc(C)c(C)c1)cn2Cc1cccc(Br)n1 [Example 119]	< 100
CN(C)c1ccc(C(=O)c2cn(Cc3cccc(Br)n3)c3ccccc3c2=O)cc1 [Example 120]	< 100
Cc1ccccc1C(=O)c1cn(Cc2cccc(Br)n2)c2ccccc2c1=O [Example 121]	< 100
Cc1cccc(C(=O)c2cn(Cc3cccc(Br)n3)c3ccccc3c2=O)n1 [Example 122]	100 to 500
O=C(c1ccc(CN2CCOCC2)cc1)c1cn(Cc2cccc(Br)n2)c2ccccc2c1=O [Example 123]	500 to 20000
Cc1cccc(Cn2cc(C(=O)c3cnc(C)c(C)c3)c(=O)c3cc(F)ccc32)n1 [Example 124]	< 100
Cc1cc(C(=O)c2cn(Cc3cccc(CO)n3)c3ccccc3c2=O)cnc1C [Example 125]	100 to 500
O=C(c1ccccc1C1OCCCO1)c1cn(Cc2cccc(Br)n2)c2ccccc2c1=O [Example 126]	< 100
COCCOc1ccc(C(=O)c2cn(Cc3cccc(Br)n3)c3ccccc3c2=O)cc1C [Example 127]	100 to 500
O=C(c1ncc(Br)cn1)c1cn(Cc2cccc(Br)n2)c2ccccc2c1=O [Example 128]	500 to 20000
CN(C)Cc1ccccc1C(=O)c1cn(Cc2cccc(Br)n2)c2ccccc2c1=O [Example 129]	< 100
Cc1cccc(Cn2cc(C(=O)c3ccc(C)c(C)c3)c(=O)c3nc(C)ccc32)n1 [Example 130]	< 100
O=C(c1ccc2c(c1)CCO2)c1cn(Cc2cccc(Br)n2)c2ccccc2c1=O [Example 131]	< 100
CCOc1ccc(C(=O)c2cn(Cc3cccc(Br)n3)c3ccccc3c2=O)cc1C [Example 132]	< 100
O=C(c1ccc(C(F)(F)F)nc1)c1cn(Cc2cccc(Br)n2)c2ccccc2c1=O [Example 133]	< 100
Cc1cccc(Cn2cc(C(=O)c3ccc(C)c(C)c3)c(=O)c3ncccc32)n1 [Example 134]	< 100
O=C(c1cccc(C2OCCCO2)c1)c1cn(Cc2cccc(Br)n2)c2ccccc2c1=O [Example 135]	500 to 20000
COc1ccc(C(=O)c2cn(Cc3cccc(Br)n3)c3ccccc3c2=O)cc1C1OCCCO1 [Example 136]	< 100
O=C(c1ccc(C2OCCCO2)cc1)c1cn(Cc2cccc(Br)n2)c2ccccc2c1=O [Example 137]	100 to 500
O=C(O)c1ccccc1C(=O)c1cn(Cc2cccc(Br)n2)c2ccccc2c1=O [Example 138]	< 100

Compound	IC50 [nM]
O=C(c1cccc(C(F)(F)F)n1)c1cn(Cc2cccc(Br)n2)c2ccccc2c1=O [Example 139]	500 to 20000
COc1ccc(C(=O)c2cn(Cc3cccc(Br)n3)c3ccccc3c2=O)cc1OC [Example 140]	< 100
COc1cccc(C(=O)c2cn(Cc3cccc(Br)n3)c3ccccc3c2=O)c1 [Example 141]	< 100
Cc1ccc2c(=O)c(C(=O)c3ccc4c(c3)OCCO4)cn(Cc3cccc(Br)n3)c2n1 [Example 142]	< 100
COc1ccc(C(=O)c2cn(Cc3cccc(Br)n3)c3nc(C)ccc3c2=O)cc1C [Example 143]	< 100
COc1ccc(C(=O)c2cn(Cc3cccc(Br)n3)c3ccccc3c2=O)cc1 [Example 144]	< 100
COc1ccc(C(=O)c2cn(Cc3cccc(Br)n3)c3ccccc3c2=O)cc1F [Example 145]	< 100
Cc1ccc2c(=O)c(C(=O)c3cnc(C)c(C)c3)cn(Cc3cccc(Br)n3)c2n1 [Example 146]	100 to 500
Cc1nc(C(=O)c2cn(Cc3cccc(Br)n3)c3ccccc3c2=O)sc1C [Example 147]	< 100
CC(C)c1ccc(C(=O)c2cn(Cc3cccc(Br)n3)c3ccccc3c2=O)cc1 [Example 148]	< 100
Cc1cccnc1C(=O)c1cn(Cc2cccc(Br)n2)c2ccccc2c1=O [Example 149]	100 to 500
Cc1ccnc(C(=O)c2cn(Cc3cccc(Br)n3)c3ccccc3c2=O)c1 [Example 150]	100 to 500
Cc1ccc(C(=O)c2cn(Cc3cccc(Br)n3)c3ccccc3c2=O)nc1 [Example 151]	< 100
Cc1ncc(C(=O)c2cn(Cc3cccc(Br)n3)c3ccccc3c2=O)n1C [Example 152]	500 to 20000
CNCc1ccc(C(=O)c2cn(Cc3cccc(Br)n3)c3ccccc3c2=O)cc1 [Example 153]	100 to 500
CCc1ccc(C(=O)c2cn(Cc3cccc(Br)n3)c3ccccc3c2=O)cn1 [Example 154]	< 100
COC(=O)c1ccccc1C(=O)c1cn(Cc2cccc(Br)n2)c2ccccc2c1=O [Example 155]	< 100
COc1ccc(C(=O)c2cn(Cc3cccc(C)n3)c3ccccc3c2=O)cc1C [Example 156]	< 100
Cc1cccc(Cn2cc(C(=O)c3ccc4c(c3)OCCO4)c(=O)c3ccccc32)n1 [Example 157]	< 100
Cc1cccc(Cn2cc(C(=O)c3ccc(N(C)C)cc3)c(=O)c3ccccc32)n1 [Example 158]	< 100
Cc1ccc(C(=O)c2cn(Cc3cccc(Br)n3)c3nc(C)c(C)cc3c2=O)cc1C [Example 159]	< 100

Compound	IC50 [nM]
COc1ccc(C(=O)c2cn(Cc3cccc(Br)n3)c3ncccc3c2=O)cc1C [Example 160]	< 100
COc1ccc(C(=O)c2cn(Cc3cccc(C)n3)c3ncccc3c2=O)cc1 [Example 161]	< 100
COc1ccc(C(=O)c2cn(Cc3cccc(C)n3)c3ncccc3c2=O)cc1C [Example 162]	< 100
COc1ccc(C(=O)c2cn(Cc3cccc(C)n3)c3ncccc3c2=O)cc1F [Example 163]	< 100
Cc1cccc(Cn2cc(C(=O)c3ccc4c(c3)OCCO4)c(=O)c3cccnc32)n1 [Example 164]	< 100
Cc1cccc(Cn2cc(C(=O)c3ccc(C(C)C)cc3)c(=O)c3cccnc32)n1 [Example 165]	< 100
COc1cc(C(=O)c2cn(Cc3cccc(C)n3)c3ncccc3c2=O)ccc1Cl [Example 166]	< 100
O=C(c1ccccc1-c1cnco1)c1cn(Cc2cccc(Br)n2)c2ccccc2c1=O [Example 167]	500 to 20000
CN(C)C(=O)c1ccccc1C(=O)c1cn(Cc2cccc(Br)n2)c2ccccc2c1=O [Example 168]	< 100
CNC(=O)c1ccccc1C(=O)c1cn(Cc2cccc(Br)n2)c2ccccc2c1=O [Example 169]	500 to 20000
O=C(NC1CC1)c1ccccc1C(=O)c1cn(Cc2cccc(Br)n2)c2ccccc2c1=O [Example 170]	500 to 20000
O=C(c1ccccc1C(=O)N1CCC1)c1cn(Cc2cccc(Br)n2)c2ccccc2c1=O [Example 171]	< 100
COc1cc(C(=O)c2cn(Cc3cccc(Br)n3)c3ncccc3c2=O)ccc1Cl [Example 172]	< 100
COc1ccc(C(=O)c2cn(Cc3cccc(Br)n3)c3ncccc3c2=O)cc1 [Example 173]	< 100
COc1ccc(C(=O)c2cn(Cc3cccc(Br)n3)c3ncccc3c2=O)cc1F [Example 174]	< 100
O=C(c1ccc2c(c1)OCCO2)c1cn(Cc2cccc(Br)n2)c2ncccc2c1=O [Example 175]	< 100
Cc1cccc(Cn2cc(C(=O)c3ccccc3Br)c(=O)c3ccccc32)n1 [Example 176]	< 100
Cc1cccc(Cn2cc(C(=O)c3ccc(C(F)(F)F)nc3)c(=O)c3ccccc32)n1 [Example 177]	100 to 500
COc1ccc(C(=O)c2cn(Cc3cccc(Br)n3)c3ccccc3c2=O)c(C)c1 [Example 178]	< 100
